Experimental data from ChEMBL document CHEMBL1201862, “PubChem BioAssay data set” (2004).
Active and inactive are the calls of the source.

Assays:
[1] = biological target: 5-hydroxytryptamine receptor 2A (Mus musculus, UniProt P35363); type: functional, cell-based;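 also: CHO-K1 cells with tagged receptor and beta-arrestin; agonist potency measured as compound-induced activation of the receptor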
[2] = biological target: Mu-type opioid receptor (Homo sapiens, UniProt P35372); type: functional, cell-based;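 also: U2OS cells with beta-arrestin recruitment to OPRM1 by beta-gal complementation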
Sequence of Mu-type opioid receptor (P35372 whole entry): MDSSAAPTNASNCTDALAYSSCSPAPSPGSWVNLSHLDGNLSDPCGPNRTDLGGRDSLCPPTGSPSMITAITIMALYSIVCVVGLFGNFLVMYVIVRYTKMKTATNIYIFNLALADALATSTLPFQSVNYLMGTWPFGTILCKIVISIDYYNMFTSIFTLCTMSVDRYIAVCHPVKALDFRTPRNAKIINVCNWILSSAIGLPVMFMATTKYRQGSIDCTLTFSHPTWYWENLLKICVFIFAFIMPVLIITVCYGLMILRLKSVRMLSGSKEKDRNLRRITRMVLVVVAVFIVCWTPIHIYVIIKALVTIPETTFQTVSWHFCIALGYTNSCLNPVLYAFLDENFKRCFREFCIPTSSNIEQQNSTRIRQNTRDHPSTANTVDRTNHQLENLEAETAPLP

[3] = biological target: T1, Fructose-bisphosphate aldolase (Mycobacterium tuberculosis, UniProt P9WQA3); assay: Fluorescence-based biochemical high throughput dose response assay for inhibitors of the fructose-bisphosphate aldolase (FBA) of M. tuberculosis.; type: functional
T1 sequence (P9WQA3 whole entry): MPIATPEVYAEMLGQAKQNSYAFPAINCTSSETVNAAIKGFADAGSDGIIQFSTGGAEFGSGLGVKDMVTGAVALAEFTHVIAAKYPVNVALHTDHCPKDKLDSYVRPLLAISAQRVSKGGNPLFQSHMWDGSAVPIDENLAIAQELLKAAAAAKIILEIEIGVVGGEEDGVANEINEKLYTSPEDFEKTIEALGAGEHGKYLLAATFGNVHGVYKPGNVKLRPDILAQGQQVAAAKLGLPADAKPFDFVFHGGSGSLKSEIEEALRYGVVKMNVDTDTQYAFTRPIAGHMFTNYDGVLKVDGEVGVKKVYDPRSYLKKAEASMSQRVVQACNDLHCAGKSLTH

[4] = biological target: Albumin (Bos taurus, UniProt P02769); assay: Counterscreen for inhibitors of T-cell receptor (TCR)-CD3 interaction: Fluorescence-based biochemical high throughput dose response assay to identify inhibitors of T-cell receptor (TCR)-CD3 interaction using a TAMRA-labeled BSA probe.; type: functional
Sequence of Albumin (P02769 whole entry): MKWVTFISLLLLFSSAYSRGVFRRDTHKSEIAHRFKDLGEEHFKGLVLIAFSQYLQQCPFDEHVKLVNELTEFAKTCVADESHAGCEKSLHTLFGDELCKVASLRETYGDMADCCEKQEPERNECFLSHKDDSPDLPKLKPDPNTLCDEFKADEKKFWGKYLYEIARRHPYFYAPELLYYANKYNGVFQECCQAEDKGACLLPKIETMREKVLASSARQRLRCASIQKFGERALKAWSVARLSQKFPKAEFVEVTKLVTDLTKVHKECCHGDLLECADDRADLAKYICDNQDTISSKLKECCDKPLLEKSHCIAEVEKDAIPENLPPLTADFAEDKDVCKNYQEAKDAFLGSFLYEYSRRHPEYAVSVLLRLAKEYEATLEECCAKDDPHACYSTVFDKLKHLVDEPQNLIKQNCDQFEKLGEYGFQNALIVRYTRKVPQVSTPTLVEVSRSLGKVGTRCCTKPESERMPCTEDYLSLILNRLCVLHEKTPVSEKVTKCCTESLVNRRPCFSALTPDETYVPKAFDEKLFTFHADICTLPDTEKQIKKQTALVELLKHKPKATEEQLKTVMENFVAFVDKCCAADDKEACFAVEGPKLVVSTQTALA

[5] = C. albicans growth with fluconazole, confirmation, fluorescence, retest (AID 2467); type: functional, cell-based
[6] = NIH-3T3 fibroblast cytotoxicity, dose response, cytotoxicity control, cell-based, fluorescence, Alamar Blue, secondary assay (AID 2327); type: functional;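 also: NIH-3T3 mouse fibroblasts cultured with fluconazole at 8 µg/mL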
[7] = miR-122 activators in hepatoma reporter cells, dose response, cell-based, Huh7 psiCHECK-miR122, Renilla luciferase, cherry-picked (AID 651956); type: functional;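 also: huh7 hepatoma cells stably carrying a psiCHECK-2 miR-122 sensor plasmid; renilla luciferase signal reporting endogenous miR-122 activity after 48 h compound exposure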
[8] = biological target: T2, SUMO-activating enzyme (Homo sapiens, UniProt Q9UBT2); assay: SUMOylation inhibitor hit validation, confirmation, SUMOylation inhibitor project, biochemical, AlphaScreen (AID 2018); type: functional
T2 sequence (Q9UBE0 whole entry): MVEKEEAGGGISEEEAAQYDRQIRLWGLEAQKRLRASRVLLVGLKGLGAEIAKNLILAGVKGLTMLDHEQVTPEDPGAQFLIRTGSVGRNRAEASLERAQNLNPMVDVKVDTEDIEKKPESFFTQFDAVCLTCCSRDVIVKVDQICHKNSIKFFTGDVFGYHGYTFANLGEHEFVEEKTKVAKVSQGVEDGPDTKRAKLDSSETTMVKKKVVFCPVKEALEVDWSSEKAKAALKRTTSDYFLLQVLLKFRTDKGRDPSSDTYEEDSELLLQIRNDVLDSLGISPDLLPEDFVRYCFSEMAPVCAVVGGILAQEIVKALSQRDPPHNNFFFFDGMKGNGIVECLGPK
T2 sequence (Q9UBT2 whole entry): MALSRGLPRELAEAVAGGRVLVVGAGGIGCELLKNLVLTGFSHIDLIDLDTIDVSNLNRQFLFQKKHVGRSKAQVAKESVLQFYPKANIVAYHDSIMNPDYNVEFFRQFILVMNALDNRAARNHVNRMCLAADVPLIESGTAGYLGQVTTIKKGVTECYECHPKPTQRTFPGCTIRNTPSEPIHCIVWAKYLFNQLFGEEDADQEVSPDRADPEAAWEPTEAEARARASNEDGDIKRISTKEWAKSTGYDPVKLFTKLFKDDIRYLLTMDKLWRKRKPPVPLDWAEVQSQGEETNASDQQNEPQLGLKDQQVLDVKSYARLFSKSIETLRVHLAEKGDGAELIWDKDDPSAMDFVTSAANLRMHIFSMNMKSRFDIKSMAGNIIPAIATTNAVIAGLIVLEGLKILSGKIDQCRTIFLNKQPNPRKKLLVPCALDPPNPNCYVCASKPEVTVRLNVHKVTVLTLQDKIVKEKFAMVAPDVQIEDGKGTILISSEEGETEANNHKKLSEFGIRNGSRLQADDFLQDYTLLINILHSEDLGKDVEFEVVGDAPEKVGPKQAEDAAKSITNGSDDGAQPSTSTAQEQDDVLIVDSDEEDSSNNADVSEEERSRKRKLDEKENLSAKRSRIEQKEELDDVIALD

[9] = biological target: T2, SUMO-activating enzyme; assay: inhibitors of in vitro SUMOylation cascade, primary screen, biochemical, HTRF, uHTS (AID 2006); type: protein-complex assay
[10] = biological target: T3, Sentrin-specific protease 8 (Homo sapiens, UniProt Q96LD8); type: functional;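 also: luminescence read-out of SENP8 inhibition, dose-response confirmation following an ultra-high-throughput screen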
T3 sequence (Q96LD8 whole entry): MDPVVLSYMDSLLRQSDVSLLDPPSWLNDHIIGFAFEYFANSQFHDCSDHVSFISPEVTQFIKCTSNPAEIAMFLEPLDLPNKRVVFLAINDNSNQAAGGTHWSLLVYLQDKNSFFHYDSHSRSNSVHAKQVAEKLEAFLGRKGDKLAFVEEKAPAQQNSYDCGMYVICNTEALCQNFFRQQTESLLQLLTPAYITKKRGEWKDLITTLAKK

[11] = biological target: T4, Caspase-3 (Homo sapiens, UniProt P42574); type: functional;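 also: Dose-response selectivity test against caspase-3 for candidate inhibitors of sentrin-specific proteases (SENPs)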
T4 sequence (P42574 whole entry): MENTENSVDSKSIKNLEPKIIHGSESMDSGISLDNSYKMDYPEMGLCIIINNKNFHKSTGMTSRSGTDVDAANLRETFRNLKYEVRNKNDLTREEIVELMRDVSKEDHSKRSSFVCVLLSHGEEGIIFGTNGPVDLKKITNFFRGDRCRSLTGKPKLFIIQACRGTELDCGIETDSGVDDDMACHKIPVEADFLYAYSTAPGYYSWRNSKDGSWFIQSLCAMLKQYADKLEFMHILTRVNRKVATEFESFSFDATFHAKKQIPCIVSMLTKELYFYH

[12] = biological target: T5, Sentrin-specific protease 6 (Homo sapiens, UniProt Q9GZR1); type: functional;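 also: Luminescence-based dose-response confirmatory assay of SENP6 inhibition, following up an ultra-high-throughput screen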
T5 sequence (Q9GZR1 whole entry): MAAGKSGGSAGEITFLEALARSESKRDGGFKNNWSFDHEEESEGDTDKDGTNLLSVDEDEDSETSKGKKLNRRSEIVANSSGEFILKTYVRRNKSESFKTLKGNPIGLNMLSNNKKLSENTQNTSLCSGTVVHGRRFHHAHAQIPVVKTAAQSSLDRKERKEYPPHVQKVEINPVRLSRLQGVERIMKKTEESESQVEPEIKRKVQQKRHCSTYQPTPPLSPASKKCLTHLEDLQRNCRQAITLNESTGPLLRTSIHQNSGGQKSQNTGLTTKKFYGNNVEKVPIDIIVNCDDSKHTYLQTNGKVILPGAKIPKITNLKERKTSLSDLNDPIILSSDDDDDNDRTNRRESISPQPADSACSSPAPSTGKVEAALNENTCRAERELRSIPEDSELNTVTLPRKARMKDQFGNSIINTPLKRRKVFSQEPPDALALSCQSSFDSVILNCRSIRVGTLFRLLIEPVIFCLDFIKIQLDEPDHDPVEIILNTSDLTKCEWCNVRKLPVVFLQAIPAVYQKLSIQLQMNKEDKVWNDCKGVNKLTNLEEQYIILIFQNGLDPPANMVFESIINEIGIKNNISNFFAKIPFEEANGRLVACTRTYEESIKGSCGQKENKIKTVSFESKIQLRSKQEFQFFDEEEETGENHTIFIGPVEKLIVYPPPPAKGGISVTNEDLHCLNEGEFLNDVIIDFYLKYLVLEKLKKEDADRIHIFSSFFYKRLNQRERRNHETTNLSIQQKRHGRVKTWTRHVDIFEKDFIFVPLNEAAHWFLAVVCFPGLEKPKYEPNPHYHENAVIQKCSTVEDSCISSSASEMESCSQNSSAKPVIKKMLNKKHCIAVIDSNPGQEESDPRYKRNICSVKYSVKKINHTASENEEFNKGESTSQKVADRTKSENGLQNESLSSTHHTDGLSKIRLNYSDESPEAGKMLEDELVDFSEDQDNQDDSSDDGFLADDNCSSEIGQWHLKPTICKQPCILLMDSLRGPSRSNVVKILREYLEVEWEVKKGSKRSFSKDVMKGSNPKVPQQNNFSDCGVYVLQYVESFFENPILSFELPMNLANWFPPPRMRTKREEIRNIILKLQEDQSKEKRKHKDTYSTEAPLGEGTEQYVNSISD

[13] = system: INS1; assay: beta cell apoptosis inhibitors, cytokine rescue, dose response, luminescence, retest (AID 449756); type: functional, cell-based; conditions: Rattus norvegicus;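 also: cell death triggered by IL-1 beta plus TNF-alpha plus IFN-gamma mixture; protective hits raise ATP signal compared with cytokine alone wells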
[14] = biological target: T6, Long-chain-fatty-acid--AMP ligase FadD28 (Mycobacterium tuberculosis, UniProt P9WQ59); assay: Fluorescence polarization aasay to screen for inhibitors that compete for the binding of FadD28 to a bisubstrate Measured in Biochemical System Using Plate Reader - 2147-01_Inhibitor_Dose_CherryPick_Activity.; type: functional, Mycobacterium tuberculosis H37Rv
T6 sequence (P9WQ59 whole entry): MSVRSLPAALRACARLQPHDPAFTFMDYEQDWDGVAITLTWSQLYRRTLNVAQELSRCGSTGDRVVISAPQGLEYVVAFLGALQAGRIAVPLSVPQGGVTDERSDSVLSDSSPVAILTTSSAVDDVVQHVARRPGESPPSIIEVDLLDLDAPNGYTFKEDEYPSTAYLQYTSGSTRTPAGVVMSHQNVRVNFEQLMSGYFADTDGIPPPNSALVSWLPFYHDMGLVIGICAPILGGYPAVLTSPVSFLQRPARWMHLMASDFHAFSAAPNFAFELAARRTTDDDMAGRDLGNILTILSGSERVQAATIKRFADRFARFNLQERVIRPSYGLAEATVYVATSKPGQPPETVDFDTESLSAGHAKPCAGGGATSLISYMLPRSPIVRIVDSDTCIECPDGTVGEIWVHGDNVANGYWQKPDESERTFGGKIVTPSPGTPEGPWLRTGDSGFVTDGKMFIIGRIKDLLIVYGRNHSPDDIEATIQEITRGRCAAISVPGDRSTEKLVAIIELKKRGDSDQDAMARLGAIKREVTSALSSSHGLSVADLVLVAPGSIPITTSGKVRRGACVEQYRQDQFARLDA

[15] = biological target: T7, Sentrin-specific protease 7 (Homo sapiens, UniProt Q9BQF6); type: functional;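 also: Luminescence-based dose-response confirmation of ultra-high-throughput screening hits, measuring inhibition of SENP7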
T7 sequence (Q9BQF6 whole entry): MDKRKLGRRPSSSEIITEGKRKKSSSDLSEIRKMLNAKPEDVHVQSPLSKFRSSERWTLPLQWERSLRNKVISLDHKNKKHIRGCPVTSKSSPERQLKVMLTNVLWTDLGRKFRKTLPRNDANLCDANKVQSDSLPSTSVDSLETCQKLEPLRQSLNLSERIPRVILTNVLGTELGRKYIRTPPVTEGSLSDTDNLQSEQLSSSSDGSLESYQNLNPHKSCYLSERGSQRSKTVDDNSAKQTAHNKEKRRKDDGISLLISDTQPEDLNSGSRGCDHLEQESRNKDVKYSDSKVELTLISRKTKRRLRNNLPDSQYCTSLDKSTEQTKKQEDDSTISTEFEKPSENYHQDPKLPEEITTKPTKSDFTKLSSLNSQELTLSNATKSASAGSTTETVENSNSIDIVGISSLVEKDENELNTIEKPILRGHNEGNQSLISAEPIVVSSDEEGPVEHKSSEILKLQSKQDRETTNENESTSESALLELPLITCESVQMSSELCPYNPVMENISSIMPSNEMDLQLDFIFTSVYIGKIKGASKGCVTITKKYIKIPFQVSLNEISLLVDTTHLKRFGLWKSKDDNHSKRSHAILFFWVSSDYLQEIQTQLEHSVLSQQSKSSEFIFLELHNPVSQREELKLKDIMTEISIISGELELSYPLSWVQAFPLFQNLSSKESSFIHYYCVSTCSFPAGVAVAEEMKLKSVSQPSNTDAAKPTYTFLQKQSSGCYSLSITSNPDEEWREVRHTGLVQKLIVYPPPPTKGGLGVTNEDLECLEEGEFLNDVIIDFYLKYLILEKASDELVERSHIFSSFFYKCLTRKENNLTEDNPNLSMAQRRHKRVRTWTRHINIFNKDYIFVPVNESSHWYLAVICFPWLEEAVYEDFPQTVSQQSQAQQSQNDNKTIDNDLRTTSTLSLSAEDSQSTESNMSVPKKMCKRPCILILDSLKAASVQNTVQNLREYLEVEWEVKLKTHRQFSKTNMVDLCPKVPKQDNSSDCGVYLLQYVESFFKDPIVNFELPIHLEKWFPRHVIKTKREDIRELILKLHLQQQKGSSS

[16] = HeLa cell cytotoxicity, dose response, cytotoxicity control for MgcRacGAP inhibitor project (AID 624300); type: functional
[17] = Luminescence Cell-Based Dose Confirmation HTS to Identify Inhibitors of Platelet Dense Granule Release. [Related pubchem assays: 1663 (Primary HTS), 1678 (Summary of Project)]; type: functional
[18] = biological target: Luciferin 4-monooxygenase (Photinus pyralis, UniProt P08659); assay: firefly luciferase enzyme inhibitors, dose response, biochemical, luminescence (AID 1891)
Sequence of Luciferin 4-monooxygenase (P08659 whole entry): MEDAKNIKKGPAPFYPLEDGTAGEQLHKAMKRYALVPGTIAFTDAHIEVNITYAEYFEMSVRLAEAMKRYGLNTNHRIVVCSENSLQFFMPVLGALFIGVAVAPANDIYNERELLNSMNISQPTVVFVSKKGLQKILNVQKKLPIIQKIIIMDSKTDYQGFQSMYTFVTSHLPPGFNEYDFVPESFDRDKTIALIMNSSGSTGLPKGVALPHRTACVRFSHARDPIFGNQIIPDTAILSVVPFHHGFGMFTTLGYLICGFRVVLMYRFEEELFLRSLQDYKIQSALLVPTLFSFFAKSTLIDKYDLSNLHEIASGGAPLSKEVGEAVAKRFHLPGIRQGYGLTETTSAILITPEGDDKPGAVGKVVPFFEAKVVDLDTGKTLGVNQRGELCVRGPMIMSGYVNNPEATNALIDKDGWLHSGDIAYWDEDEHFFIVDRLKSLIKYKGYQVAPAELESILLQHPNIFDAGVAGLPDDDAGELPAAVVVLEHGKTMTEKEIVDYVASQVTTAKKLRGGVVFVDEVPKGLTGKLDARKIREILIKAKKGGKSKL

[19] = biological target: Large T antigen (Simian virus 40, UniProt P03070); type: functional, Betapolyomavirus macacae;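 also: Confirmatory-stage PubChem screen for compounds that inhibit SV40 T antigen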
Sequence of Large T antigen (P03070 whole entry): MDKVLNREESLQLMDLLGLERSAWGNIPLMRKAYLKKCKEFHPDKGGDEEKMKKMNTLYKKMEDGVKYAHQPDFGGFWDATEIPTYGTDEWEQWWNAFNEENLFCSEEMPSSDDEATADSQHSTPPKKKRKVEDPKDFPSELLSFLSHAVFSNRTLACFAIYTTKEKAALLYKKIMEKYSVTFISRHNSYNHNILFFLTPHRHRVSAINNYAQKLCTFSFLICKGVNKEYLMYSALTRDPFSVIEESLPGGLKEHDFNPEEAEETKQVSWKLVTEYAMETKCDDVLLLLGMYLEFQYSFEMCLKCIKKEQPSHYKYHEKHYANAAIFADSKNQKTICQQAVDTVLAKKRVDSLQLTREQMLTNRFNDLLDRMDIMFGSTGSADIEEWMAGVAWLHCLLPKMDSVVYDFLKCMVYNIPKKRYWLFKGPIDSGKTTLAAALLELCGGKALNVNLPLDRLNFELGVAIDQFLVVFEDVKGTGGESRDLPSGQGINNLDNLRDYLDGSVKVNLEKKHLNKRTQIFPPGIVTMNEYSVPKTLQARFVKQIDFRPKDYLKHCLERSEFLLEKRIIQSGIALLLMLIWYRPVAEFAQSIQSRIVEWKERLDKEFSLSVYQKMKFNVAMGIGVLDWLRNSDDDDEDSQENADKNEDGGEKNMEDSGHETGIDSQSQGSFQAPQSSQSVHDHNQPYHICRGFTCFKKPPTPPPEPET

[20] = biological target: T8, Rac GTPase-activating protein 1 (Homo sapiens, UniProt Q9H0H5); assay: MgcRacGAP GTPase-activating activity inhibitors, confirmation, biochemical, ADP Hunter fluorescence, primary and confirmatory (AID 624330); type: functional
T8 sequence (Q9H0H5 whole entry): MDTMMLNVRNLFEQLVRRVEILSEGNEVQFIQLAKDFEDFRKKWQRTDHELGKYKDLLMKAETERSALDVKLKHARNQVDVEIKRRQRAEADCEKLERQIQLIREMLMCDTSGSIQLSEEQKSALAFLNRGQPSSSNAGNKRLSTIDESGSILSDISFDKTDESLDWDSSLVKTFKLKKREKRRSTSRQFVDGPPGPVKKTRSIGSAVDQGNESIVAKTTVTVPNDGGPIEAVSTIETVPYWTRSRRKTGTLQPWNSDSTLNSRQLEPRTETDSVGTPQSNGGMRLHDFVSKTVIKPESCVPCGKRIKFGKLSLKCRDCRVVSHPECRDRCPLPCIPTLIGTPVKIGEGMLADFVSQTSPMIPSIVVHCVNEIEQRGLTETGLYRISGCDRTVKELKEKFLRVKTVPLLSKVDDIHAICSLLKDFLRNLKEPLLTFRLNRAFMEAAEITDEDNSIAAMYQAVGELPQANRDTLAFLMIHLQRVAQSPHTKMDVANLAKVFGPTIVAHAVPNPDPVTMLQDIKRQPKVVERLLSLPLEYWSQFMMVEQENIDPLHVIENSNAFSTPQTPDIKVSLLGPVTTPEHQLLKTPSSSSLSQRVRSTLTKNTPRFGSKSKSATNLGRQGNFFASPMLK

Sequence of 5-hydroxytryptamine receptor 2A (P35363 whole entry): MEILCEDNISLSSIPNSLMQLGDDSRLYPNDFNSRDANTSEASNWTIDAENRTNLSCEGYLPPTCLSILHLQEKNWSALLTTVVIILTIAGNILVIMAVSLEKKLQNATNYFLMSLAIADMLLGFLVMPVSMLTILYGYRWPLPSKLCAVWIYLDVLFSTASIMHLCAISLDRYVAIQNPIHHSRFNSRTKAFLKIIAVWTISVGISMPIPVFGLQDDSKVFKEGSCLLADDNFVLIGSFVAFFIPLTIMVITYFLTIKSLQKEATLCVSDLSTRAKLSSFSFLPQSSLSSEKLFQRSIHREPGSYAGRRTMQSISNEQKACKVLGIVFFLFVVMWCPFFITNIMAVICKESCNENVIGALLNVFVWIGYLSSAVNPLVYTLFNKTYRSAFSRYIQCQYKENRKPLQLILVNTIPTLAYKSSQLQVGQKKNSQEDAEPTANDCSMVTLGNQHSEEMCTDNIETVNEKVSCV

## COc1cccc(OC)c1OCCN1CCN(C(=O)c2ccco2)CC1
[1]
  EC50: 3.12 µM (active)
[2]
  EC50: 92.4 µM (inactive)

## CCOc1ccc(NC(=O)NNC(=O)c2ccc3ccccc3c2O)cc1
[3]
  IC50: 3.15 µM (active)
[4]
  IC50: > 94.1 µM (inactive)
[5]
  EC50: 2.58 µM (active)
[6]
  EC50: > 150 µM (inactive)

## CN(C)C(=O)c1ccc(-c2ccc([C@H]3[C@@H](CO)N4CCCCN(C(=O)C5CCCC5)C[C@@H]34)cc2)cc1
[7]
  AC50: 49 µM (active)

## O=[N+]([O-])c1ccc(O)c(/C=N/NC(=S)Nc2ccc(Cl)cc2Cl)c1
[8]
  IC50: 1.41 µM (active)
[9]
  IC50: 23.1 µM (active)
[4]
  IC50: > 94.1 µM (inactive)
[10]
  IC50: 7.38 µM (active)
[11]
  IC50: 28.3 µM (active)
[5]
  EC50: 3.32 µM (active)
[12]
  IC50: 3.15 µM (active)
[6]
  EC50: > 160 µM (inactive)
[13]
  AC50: 1.72 µM (active)
[14]
  AC50: > 100 µM (inactive)
[15]
  IC50: 3.08 µM (active)

## CC(=O)NC(CC(=O)NNC(=O)c1cc2ccccc2cc1O)c1ccccc1 (stereo not drawn)
[4]
  IC50: > 94.1 µM (inactive)
[5]
  EC50: > 38 µM (not active)
[6]
  EC50: > 160 µM (inactive)

## CN(C)S(=O)(=O)c1cccc(NC(=O)CCc2c[nH]c3ccccc23)c1
[14]
  AC50: 97.9 µM (active)

## Cc1cccc(N2CCN(CC(O)COc3ccc4ccccc4c3)CC2)c1 (stereo not drawn)
[1]
  EC50: 76 µM (inactive)
[2]
  EC50: 92.4 µM (inactive)

## CNC(=O)Oc1ccc(-c2cn3cc(C)ccc3n2)cc1
[16]
  CC50: 100 µM (active)

## CC(C)CC#Cc1ccc2c(c1)O[C@H](CN(C)C(=O)c1cnccn1)[C@H](C)CN([C@@H](C)CO)S2(=O)=O
[7]
  AC50: 10.5 µM (active)

## Cc1nc(-c2nc(-c3c(C(=O)NNC(=O)Nc4cccc(Cl)c4)noc3C)cs2)cs1
[1]
  EC50: 6.23 µM (active)
[2]
  EC50: 92.5 µM (inactive)

## COc1cc(/C=N/Nc2nncn2/N=C/c2ccc(O)c(OC)c2)ccc1O
[16]
  CC50: 10.7 µM (active)
[17]
  EC50: 2.63 µM (active)
[18]
  EC50: 0.658 µM (active)
[19]
  IC50: 12.9 µM (active)
[20]
  IC50: 43.6 µM (active)
